Data as given in publication PMC5214846 (Structure (London, England : 1993), 2016).
Where two headings read alike, the source gives them in different places.

Tests used:
ELIC [1] = target: T1, ELIC (Dickeya chrysanthemi, UniProt P0C7B7); details: cited from earlier work
[2] = Highest soluble concentration of long-chain alcohols
ELIC [3] = target: T1, ELIC; assay: Functional measurements of Xenopus laevis oocytes expressing ELIC; details: for Modulation of ELIC at low agonist concentration (EC3) / Modulation of ELIC at EC20: representative traces; for Modulation of ELIC at EC20: agonist EC20
ELIC-α1β3GABAAR = format: cell-based; details: for Modulation of ELIC-α1β3GABAAR at EC20: agonist EC20

T1 sequence (P0C7B7 whole entry): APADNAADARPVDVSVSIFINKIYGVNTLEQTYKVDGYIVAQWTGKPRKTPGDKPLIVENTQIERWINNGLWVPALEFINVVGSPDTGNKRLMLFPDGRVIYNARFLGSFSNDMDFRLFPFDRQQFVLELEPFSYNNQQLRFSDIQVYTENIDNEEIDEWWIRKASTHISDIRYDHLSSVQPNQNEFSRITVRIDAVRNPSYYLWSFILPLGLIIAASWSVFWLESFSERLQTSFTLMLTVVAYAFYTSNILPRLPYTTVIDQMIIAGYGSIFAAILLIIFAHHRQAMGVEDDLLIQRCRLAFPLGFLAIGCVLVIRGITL

FC(F)OC(Cl)C(F)(F)F (stereo not drawn) [isoflurane]
Effect on ELIC (ELIC [1]; binding to the pore at 6′ and 13′ positions, ref Chen et al., 2015): inhibits

CCCCCCCCCCO [n-decanol]
Highest soluble concentration [2]: ~ 0.3 mM
Inhibition of ELIC at highest soluble concentration (ELIC [3]; n-decanol ~0.3 mM, n-dodecanol ~0.02 mM, PPA-elicited current): much weaker inhibition than n-nonanol or n-hexanol

CC(C)c1cccc(C(C)C)c1O [propofol]
Effect on ELIC (ELIC [1]; through a common TMD intra-subunit binding pocket, ref Kinde et al., 2016): inhibit

CCO [EtOH, ethanol]
Modulation of ELIC-α1β3GABAAR at low agonist concentration (EC3) (ELIC-α1β3GABAAR): potentiate
Modulation of ELIC-α1β3GABAAR at EC20 (ELIC-α1β3GABAAR): no inhibition
Modulation of ELIC at low agonist concentration (EC3) (ELIC [3]): inhibition
Modulation of ELIC at EC20 (ELIC [3]): strongly inhibit

OCCBr [BrEtOH, 2-bromoethanol]
Modulation of ELIC-α1β3GABAAR at low agonist concentration (EC3) (ELIC-α1β3GABAAR): potentiate
Modulation of ELIC-α1β3GABAAR at EC20 (ELIC-α1β3GABAAR): some potentiation
Modulation of ELIC at low agonist concentration (EC3) (ELIC [3]): inhibition
Modulation of ELIC at EC20 (ELIC [3]): strongly inhibit
